Assays:
Experiment in all cases: relative viability (nuclei count vs DMSO), 5 days (fraction); higher = more cells survive
NCI-H1915 = tested on: NCI-H1915
Outline: (§1)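 One day after seeding in 1536-well plates, lung cancer cell lines were dosed by pin tool. Dosing was either single-drug or a fixed anchor-drug dose plus five library-drug doses (not always all listed) in √10 steps. After 5 days, nuclei were stained in one fix-and-stain step and counted on 4× images, and relative viability is the nuclei count of treated wells over that of vehicle wells, given as the median of duplicate plates.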

201T = tested on: 201T
Outline: as §1

NCI-H460 = tested on: NCI-H460
Outline: as §1

NCI-H727 = tested on: NCI-H727
Outline: as §1

NCI-H520 = tested on: NCI-H520
Outline: as §1

NCI-H2087 = tested on: NCI-H2087
Outline: as §1

A-427 = tested on: A-427
Outline: as §1

CAL-12T = tested on: CAL-12T
Outline: as §1

NCI-H650 = tested on: NCI-H650
Outline: as §1

NCI-H1651 = tested on: NCI-H1651
Outline: as §1

NCI-H2023 = tested on: NCI-H2023
Outline: as §1

ABC-1 = tested on: ABC-1
Outline: as §1

Clc1ccc(Nc2nnc(Cc3ccncc3)c3ccccc23)cc1 [Vatalanib] + COc1cc2c(Oc3ccc(NC(=O)C4(C(=O)Nc5ccc(F)cc5)CC4)cc3F)ccnc2cc1OCCCN1CCOCC1 [Foretinib] (partner 0.25 µM)
relative viability (NCI-H1915; first compound 0.04 µM): 1.09 | relative viability (NCI-H1915; first compound 0.1265 µM): 1.04 | relative viability (NCI-H1915; first compound 0.4 µM): 1.11 | relative viability (NCI-H1915; first compound 1.265 µM): 1.05 | relative viability (NCI-H1915; first compound 4 µM): 1.13 | relative viability (201T; first compound 0.04 µM): 1.17 | relative viability (201T; first compound 0.1265 µM): 0.976 | relative viability (201T; first compound 0.4 µM): 1.16 | relative viability (201T; first compound 1.265 µM): 1.09 | relative viability (201T; first compound 4 µM): 0.984 | relative viability (NCI-H460; first compound 0.04 µM): 1.11 | relative viability (NCI-H460; first compound 0.1265 µM): 0.894 | relative viability (NCI-H460; first compound 0.4 µM): 0.93 | relative viability (NCI-H460; first compound 1.265 µM): 0.934 | relative viability (NCI-H460; first compound 4 µM): 1.06 | relative viability (NCI-H727; first compound 0.04 µM): 0.901 | relative viability (NCI-H727; first compound 0.1265 µM): 0.724 | relative viability (NCI-H727; first compound 0.4 µM): 0.703 | relative viability (NCI-H727; first compound 1.265 µM): 0.572 | relative viability (NCI-H727; first compound 4 µM): 0.925 | relative viability (NCI-H520; first compound 0.04 µM): 0.875 | relative viability (NCI-H520; first compound 0.1265 µM): 0.662 | relative viability (NCI-H520; first compound 0.4 µM): 0.781 | relative viability (NCI-H520; first compound 1.265 µM): 0.842 | relative viability (NCI-H520; first compound 4 µM): 0.697 | relative viability (NCI-H2087; first compound 0.04 µM): 1.15 | relative viability (NCI-H2087; first compound 0.1265 µM): 1.08 | relative viability (NCI-H2087; first compound 0.4 µM): 1.27 | relative viability (NCI-H2087; first compound 1.265 µM): 0.958 | relative viability (NCI-H2087; first compound 4 µM): 1.03 | relative viability (A-427; first compound 0.04 µM): 1.06 | relative viability (A-427; first compound 0.1265 µM): 0.993 | relative viability (A-427; first compound 0.4 µM): 1.14 | relative viability (A-427; first compound 1.265 µM): 0.993 | relative viability (A-427; first compound 4 µM): 1.11 | relative viability (CAL-12T; first compound 0.04 µM): 1.07 | relative viability (CAL-12T; first compound 0.1265 µM): 1.16 | relative viability (CAL-12T; first compound 0.4 µM): 1.05 | relative viability (CAL-12T; first compound 1.265 µM): 1.04 | relative viability (CAL-12T; first compound 4 µM): 1.05 | relative viability (NCI-H650; first compound 0.04 µM): 1.08 | relative viability (NCI-H650; first compound 0.1265 µM): 1.01 | relative viability (NCI-H650; first compound 1.265 µM): 0.973 | relative viability (NCI-H650; first compound 4 µM): 0.978 | relative viability (NCI-H1651; first compound 0.04 µM): 0.885 | relative viability (NCI-H1651; first compound 0.1265 µM): 0.768 | relative viability (NCI-H1651; first compound 0.4 µM): 0.94 | relative viability (NCI-H1651; first compound 1.265 µM): 0.803 | relative viability (NCI-H1651; first compound 4 µM): 0.817 | relative viability (NCI-H2023; first compound 0.04 µM): 0.881 | relative viability (NCI-H2023; first compound 0.1265 µM): 0.974 | relative viability (NCI-H2023; first compound 0.4 µM): 1.04 | relative viability (NCI-H2023; first compound 1.265 µM): 0.753 | relative viability (NCI-H2023; first compound 4 µM): 1.04 | relative viability (ABC-1; first compound 0.04 µM): 1.32 | relative viability (ABC-1; first compound 0.1265 µM): 1.11
